Source: US4644012A, “Treatment for osteoporosis” (Takeda Chemical Industries, Ltd., priority 1983, dated 1987)
Ends that are not written are not given here.

Tests used:
ICR mice = conditions: mouse, in vivo
Description: (§1) Five-week-old ICR mice and 5-week-old Sprague-Dawley rats were used in groups of 10 males and 10 females, and suspensions of compound A or compound B in olive oil were administered orally [2,500, 5,000 and 10,000 mg/kg of each compound] or subcutaneously [1,250, 2,500 and 5,000 mg/kg]. The animals were kept under observation for 14 days.

Sprague-Dawley rats = conditions: rat, in vivo
Description: as §1

rat fetal long bone [1] = assay: Bone resorption inhibiting activity in rat fetal long bone culture (45Ca release); assay type: cell-based, Sprague-Dawley rat; conditions: 3 days
Description: Bone resorption inhibiting activity of 7-(1-hydroxycarbonylethyl)oxy-3-phenyl-4H-1-benzopyran-4-one (hereinafter referred to as "compound A") in rat fetal long bone culture
(§2) Determination of bone resorption was performed by the method of Raisz [J. Clin. Invest. 44, 103-116 (1965)]. Thus, a Sprague-Dawley rat on the 19th day of pregnancy was subcutaneously injected with 50μ Ci of ^45 Ca (isotope of calcium, CaCl2 solution), and was laparotomized on the following day. The embryos were aseptically taken out, the forelimbs (radius and ulna) were cut off from the trunk under a binocular dissecting microscope, and the connective tissue and cartilage were removed as much as possible to prepare bone samples. Each bone sample was preincubated at 37° C. for 24 hours in 0.6 ml of the medium containing 2 mg/ml of bovine serum albumin in BGJb medium (Fitton-Jackson modification) [GIBCO Laboratories, Grand Island, N.Y. 14072 U.S.A.]. Then, the sample was further incubated for 3 days in the same medium as above in which 10 μg/ml of compound A had been incorporated. Then, the radioactivity of ^45 Ca in the medium and that of ^45 Ca in the bone were measured and the percentage (%) of ^45 Ca released from the bone into the medium was calculated by the following formula. [formula]
As control, the bones of the embryos from the same litter were similarly incubated in the absence of compound A for 3 days.

rat fetal long bone [2] = assay: Potentiating effect on the bone resorption inhibiting action of calcitonin, PTH-stimulated rat fetal long bone culture (45Ca release); assay type: cell-based, Sprague-Dawley rat; conditions: for potentiation of the inhibitory action of calcitonin on PTH-stimulated bone resorption (in words): calcitonin 3 mU/ml, compound 25 μg/ml
Description: as §2
Potentiating effect of 7-(1-hydroxycarbonylethyl)-oxy-3-(4-hydroxyphenyl)-4H-1-benzopyran-4-one (hereinafter referred to as "compound B") and 7-(1-ethoxycarbonylethyl)-oxy-3-phenyl-4H-1-benzopyran-4-one (hereinafter referred to as "compound C") on the bone resorption inhibiting action of calcitonin in rat fetal long bone culture
The bone samples prepared in the same manner as Test Example 1 were preincubated for 24 hours in the same medium as that prepared in Test Example 1, which contains bovine serum albumin in BGJb medium (Fitton-Jackson modification). Then, in the concomitant presence of PTH (parathyroid hormone, a bone resorption stimulant), calcitonin and compound B or compound C, the samples were further incubated for 3 days and the percentage of ^45 Ca released into the medium was calculated by means of the same formula as that in Test Example 1. […]

For `CC(Oc1ccc2c(=O)c(-c3ccccc3)coc2c1)C(=O)O` (stereo not drawn) [compound A, 7-(1-hydroxycarbonylethyl)oxy-3-phenyl-4H-1-benzopyran-4-one], the LD50 (ICR mice) was “could not be calculated”, the LD50 (Sprague-Dawley rats) was “could not be calculated” and the “suppression of bone resorption (in words)” value (rat fetal long bone [1]; 10 μg/ml) was “suppressed bone resorption”. The “45Ca (%) released” value (rat fetal long bone [1]; compound 10 μg/ml, 37° C, mean ± standard deviation, six bones, control 23.6 ± 3.9, * p < 0.05 vs control) was 18.5 ± 2.2%.
For `CC(Oc1ccc2c(=O)c(-c3ccc(O)cc3)coc2c1)C(=O)O` (stereo not drawn) [compound B, 7-(1-hydroxycarbonylethyl)-oxy-3-(4-hydroxyphenyl)-4H-1-benzopyran-4-one], the LD50 (ICR mice) was “could not be calculated”, the LD50 (Sprague-Dawley rats) was “could not be calculated” and the “potentiation of the inhibitory action of calcitonin on PTH-stimulated bone resorption (in words)” value (rat fetal long bone [2]) was “potentiated the inhibitory action of calcitonin on PTH-stimulated bone resorption”.
With `CCOC(=O)C(C)Oc1ccc2c(=O)c(-c3ccccc3)coc2c1` (stereo not drawn) [compound C, 7-(1-ethoxycarbonylethyl)-oxy-3-phenyl-4H-1-benzopyran-4-one] the “potentiation of the inhibitory action of calcitonin on PTH-stimulated bone resorption (in words)” value (rat fetal long bone [2]) was “potentiated the inhibitory action of calcitonin on PTH-stimulated bone resorption”.
In the case of “calcitonin: calcitonin, bone resorption inhibitor used with PTH in control II group (CGNLSTCMLGTYTQDFNKFHTFPQTAIGVGAP; ends and bridges not checked; cysteine pairing not given here; UniProt P01258 85-116, looked up) [reference compound]”, the “45Ca (%) released” value (rat fetal long bone [2]; control II group: PTH + calcitonin 3 mU/ml, no compound, 3 days, PTH alone (control I) 39.7 ± 1.5) is reported as 35.9 ± 4.9%.
